Experiments:
[1] = molecular target: Sodium-dependent serotonin transporter (Rattus norvegicus, UniProt P31652); experiment: Binding potency for Serotonin transporter using [3H]- paroxetine
[2] = molecular target: Sodium-dependent dopamine transporter (Rattus norvegicus, UniProt P23977); experiment: Inhibition of [3H]WIN-35428 binding to Dopamine transporter
[3] = molecular target: Norepinephrine transporter (Rattus norvegicus, UniProt Q9WTR4); experiment: Binding potency for Norepinephrine transporter using [3H]NE
Sequence of Norepinephrine transporter (Q9WTR4 whole entry): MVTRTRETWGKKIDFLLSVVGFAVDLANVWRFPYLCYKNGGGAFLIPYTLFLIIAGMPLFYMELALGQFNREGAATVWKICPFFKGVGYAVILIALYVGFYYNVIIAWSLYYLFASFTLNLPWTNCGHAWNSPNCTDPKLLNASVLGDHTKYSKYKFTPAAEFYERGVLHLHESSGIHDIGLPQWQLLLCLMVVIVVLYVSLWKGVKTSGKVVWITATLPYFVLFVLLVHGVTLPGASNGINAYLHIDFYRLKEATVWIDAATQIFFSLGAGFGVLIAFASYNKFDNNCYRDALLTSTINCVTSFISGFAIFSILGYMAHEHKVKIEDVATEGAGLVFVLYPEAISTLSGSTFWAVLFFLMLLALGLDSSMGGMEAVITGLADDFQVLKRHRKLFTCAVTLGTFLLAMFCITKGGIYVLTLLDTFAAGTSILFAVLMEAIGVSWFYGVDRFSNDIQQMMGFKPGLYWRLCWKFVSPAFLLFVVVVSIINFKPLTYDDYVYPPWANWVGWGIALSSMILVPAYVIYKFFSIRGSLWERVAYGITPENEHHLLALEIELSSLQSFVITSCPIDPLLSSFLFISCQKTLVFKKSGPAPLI

Sequence of Sodium-dependent serotonin transporter (P31652 whole entry): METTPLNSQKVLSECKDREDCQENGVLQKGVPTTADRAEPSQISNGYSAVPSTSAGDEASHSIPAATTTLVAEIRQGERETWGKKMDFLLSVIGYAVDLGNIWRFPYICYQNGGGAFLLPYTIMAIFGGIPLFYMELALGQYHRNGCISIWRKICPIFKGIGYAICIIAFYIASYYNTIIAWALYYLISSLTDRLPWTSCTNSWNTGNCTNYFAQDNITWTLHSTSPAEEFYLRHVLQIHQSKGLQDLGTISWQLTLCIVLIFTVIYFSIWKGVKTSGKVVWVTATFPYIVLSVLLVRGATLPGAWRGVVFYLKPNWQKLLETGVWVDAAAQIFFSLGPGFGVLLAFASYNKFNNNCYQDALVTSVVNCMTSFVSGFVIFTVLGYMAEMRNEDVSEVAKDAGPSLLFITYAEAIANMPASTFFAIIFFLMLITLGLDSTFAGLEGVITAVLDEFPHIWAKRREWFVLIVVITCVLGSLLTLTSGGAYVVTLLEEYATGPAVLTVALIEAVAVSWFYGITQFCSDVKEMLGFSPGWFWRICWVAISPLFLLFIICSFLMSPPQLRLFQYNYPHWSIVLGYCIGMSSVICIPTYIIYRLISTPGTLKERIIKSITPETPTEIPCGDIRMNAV
Sequence of Sodium-dependent dopamine transporter (P23977 whole entry): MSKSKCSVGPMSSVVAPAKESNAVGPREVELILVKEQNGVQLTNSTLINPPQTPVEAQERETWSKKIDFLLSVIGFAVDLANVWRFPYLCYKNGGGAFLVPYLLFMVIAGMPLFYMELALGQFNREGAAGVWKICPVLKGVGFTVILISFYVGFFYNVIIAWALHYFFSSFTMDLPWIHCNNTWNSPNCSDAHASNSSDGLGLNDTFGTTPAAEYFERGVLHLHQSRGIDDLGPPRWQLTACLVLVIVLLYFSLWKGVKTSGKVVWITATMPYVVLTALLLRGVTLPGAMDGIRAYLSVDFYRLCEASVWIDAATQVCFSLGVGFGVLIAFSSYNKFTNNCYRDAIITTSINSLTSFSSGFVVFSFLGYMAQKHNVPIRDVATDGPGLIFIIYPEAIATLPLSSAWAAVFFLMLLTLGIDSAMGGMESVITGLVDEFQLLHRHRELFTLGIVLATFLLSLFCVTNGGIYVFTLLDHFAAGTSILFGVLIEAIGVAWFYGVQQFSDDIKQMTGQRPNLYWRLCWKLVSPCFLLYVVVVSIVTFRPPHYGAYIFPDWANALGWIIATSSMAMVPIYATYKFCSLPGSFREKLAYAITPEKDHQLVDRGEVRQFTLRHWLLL

SMILES | IC50 [1] [nM] | IC50 [2] [nM] | IC50 [3] [nM]
COC(=O)[C@H]1[C@@H](c2ccc(F)cc2)C[C@H]2CC[C@H]1N2C (stereo in doubt; 1a) | 810 | – | –
COC(=O)C1C(c2ccc(Cl)cc2)CC2CCC1N2C (stereo in doubt; 2c) | 998 | 2.4 | –
COC(=O)C1C(c2ccc(C)cc2)CC2CCC1N2C (centres undefined) | – | 10.2 | 275
COC(=O)C1C(c2ccc(I)cc2)CC2CCC1N2C (stereo in doubt; form 1) | – | 2.85 | 52.4
COC(=O)[C@H]1[C@@H](c2ccc(F)cc2)C[C@H]2CC[C@H]1N2C (stereo in doubt; 2a) | 5060 | – | –
COC(=O)[C@@H]1C2CC[C@H](C[C@@H]1c1ccccc1)N2C (stereo in doubt; 2e) | – | 101 | –
